Measured values from the supplement of paper PMC10307832.

Tests used:
Assay in all cases: relative viability (nuclei count vs DMSO), 5 days (fraction); higher = more cells survive
ALW-II-49-7 + Dasatinib = compound: Cc1ccc(C(=O)Nc2cccc(C(F)(F)F)c2)cc1Nc1cncc(C(N)=O)c1 [ALW-II-49-7] + Cc1nc(Nc2ncc(C(=O)Nc3c(C)cccc3Cl)s2)cc(N2CCN(CCO)CC2)n1 [Dasatinib] (partner 0.075 µM)
Procedure, shortened: (§1)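 Dosing by pin tool came one day after lung cancer cell lines were seeded in 1536-well plates, using either one drug or a fixed anchor-drug dose plus five library-drug doses (not always all listed) in √10 steps. After 5 days, nuclei were counted on 4× images. Relative viability is treated-well nuclei count divided by vehicle-well nuclei count, and values are medians of duplicate plates.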

XMD13-2 + Palbociclib = compound: C1CC1C(=O)NC2=NNC3=C2C=CC(=C3)C4=CC(=CC=C4)C(=O)NC5CC5 [XMD13-2] + CC(=O)c1c(C)c2cnc(Nc3ccc(N4CCNCC4)cn3)nc2n(C2CCCC2)c1=O [Palbociclib] (partner 0.5 µM)
Procedure, shortened: as §1

XMD13-2 + Luminespib = compound: C1CC1C(=O)NC2=NNC3=C2C=CC(=C3)C4=CC(=CC=C4)C(=O)NC5CC5 [XMD13-2] + CCNC(=O)c1noc(-c2cc(C(C)C)c(O)cc2O)c1-c1ccc(CN2CCOCC2)cc1 [Luminespib] (partner 0.01 µM)
Procedure, shortened: as §1

Dasatinib + Pemetrexed = compound: Cc1nc(Nc2ncc(C(=O)Nc3c(C)cccc3Cl)s2)cc(N2CCN(CCO)CC2)n1 [Dasatinib] + Nc1nc2[nH]cc(CCc3ccc(C(=O)N[C@@H](CCC(=O)O)C(=O)O)cc3)c2c(=O)[nH]1 [Pemetrexed] (partner 0.2 µM)
Procedure, shortened: as §1

Cell Line	relative viability (ALW-II-49-7 + Dasatinib; first compound 0.08 µM)	relative viability (ALW-II-49-7 + Dasatinib; first compound 0.253 µM)	relative viability (ALW-II-49-7 + Dasatinib; first compound 0.8 µM)	relative viability (ALW-II-49-7 + Dasatinib; first compound 2.53 µM)	relative viability (ALW-II-49-7 + Dasatinib; first compound 8 µM)	relative viability (XMD13-2 + Palbociclib; first compound 0.05 µM)	relative viability (XMD13-2 + Palbociclib; first compound 0.1581 µM)	relative viability (XMD13-2 + Palbociclib; first compound 0.5 µM)	relative viability (XMD13-2 + Palbociclib; first compound 1.581 µM)	relative viability (XMD13-2 + Palbociclib; first compound 5 µM)	relative viability (XMD13-2 + Luminespib; first compound 0.05 µM)	relative viability (XMD13-2 + Luminespib; first compound 0.1581 µM)	relative viability (XMD13-2 + Luminespib; first compound 0.5 µM)	relative viability (XMD13-2 + Luminespib; first compound 1.581 µM)	relative viability (XMD13-2 + Luminespib; first compound 5 µM)	relative viability (Dasatinib + Pemetrexed; first compound 0.005 µM)	relative viability (Dasatinib + Pemetrexed; first compound 0.01581 µM)	relative viability (Dasatinib + Pemetrexed; first compound 0.05 µM)	relative viability (Dasatinib + Pemetrexed; first compound 0.1581 µM)	relative viability (Dasatinib + Pemetrexed; first compound 0.5 µM)
NCI-H1792	0.896	0.757	0.876	0.355	0.732	0.773	0.691	0.686	0.765	0.687	0.25	0.462	0.447	0.571	0.377	0.709	0.672	0.605	0.267	0.067
NCI-H1793	0.398	0.387	0.296	0.348	0.406	0.357	0.34	0.327	0.324	0.273	0.277	–	0.168	0.172	0.175	0.609	0.503	0.556	0.424	0.488
NCI-H1915	0.372	0.349	0.339	0.326	0.292	0.56	0.509	0.529	0.481	0.509	0.867	0.859	0.833	0.717	0.635	0.489	0.455	0.449	0.337	0.159
NCI-H1944	0.206	0.237	0.232	0.228	0.227	0.323	0.312	0.325	0.351	0.322	0.797	0.756	0.758	0.899	0.697	0.573	0.583	0.49	0.234	0.158
NCI-H1975	0.298	0.451	0.323	0.349	0.34	0.77	0.607	0.538	0.678	0.61	0.169	0.253	0.172	0.197	0.191	0.284	0.286	0.297	0.239	0.201
NCI-H1993	0.492	0.533	0.423	0.545	0.666	0.641	0.484	0.722	0.606	0.547	1	0.663	0.833	0.801	1.09	0.591	0.498	0.616	0.395	0.385
NCI-H2009	0.284	0.29	0.289	0.264	0.252	0.244	0.229	0.215	0.204	0.153	1.01	1.01	1.01	1.02	1.19	1.17	1.09	1.31	0.946	0.243
NCI-H2023	0.547	0.547	0.603	0.573	0.437	0.436	0.373	0.439	0.328	0.363	0.884	0.703	0.954	0.712	0.913	0.204	0.238	0.195	0.175	0.191
NCI-H2085	0.236	0.168	0.239	0.215	0.213	0.488	0.477	0.481	0.429	0.472	0.447	0.494	0.491	0.497	0.423	0.743	0.756	0.491	0.23	0.205
NCI-H2087	0.924	0.784	0.825	0.978	0.753	0.248	0.261	0.184	0.184	0.258	0.164	0.159	0.217	0.198	0.152	0.719	0.617	0.67	0.649	0.471
NCI-H2126	0.534	0.638	0.586	0.52	0.457	0.385	0.398	0.309	0.336	0.323	0.899	0.977	0.957	0.832	0.92	0.736	0.608	0.636	0.499	0.344
NCI-H2170	0.725	0.531	0.608	0.512	0.614	0.392	0.4	0.399	0.407	0.319	0.506	0.515	0.776	0.55	0.908	0.255	0.257	0.243	0.221	0.206
NCI-H2228	0.57	0.391	0.509	0.538	0.455	1.03	0.779	0.724	0.709	0.818	0.144	0.218	0.166	0.129	0.178	0.323	0.325	0.319	0.259	0.128
NCI-H2342	0.303	0.299	0.327	0.3	0.314	0.517	0.522	0.546	0.488	0.502	0.721	0.712	0.642	0.767	0.806	0.742	0.705	0.676	0.514	0.285
NCI-H2347	0.264	0.302	0.301	0.34	0.356	0.471	0.424	0.465	0.382	0.471	0.405	0.342	0.486	0.54	0.791	0.375	0.38	0.342	0.253	0.259
NCI-H2405	0.207	0.216	0.219	0.208	0.173	0.545	0.529	0.474	–	0.518	0.853	0.634	0.578	0.641	0.633	0.852	0.65	0.422	0.229	0.22
